From patent publication US20250222011A1, “DRUG TARGET FOR INHIBITING TUMOR, USE, AND ORAL DRUG” (CHI BIOTECH CO., LTD., priority 2024, published 2025)

Tests used:
[1] = system: nascent peptides; assay: Detection of nascent peptides (puromycin labelling, Western blotting); format: cell-based; conditions: 1 mg/mL, FIG. 6
Description: Detection of nascent peptides: the cells were plated in a 6-well plate, with 200,000 cells in each well. After 24 h of adhesion, ATCA was added to make a working solution at a concentration of 1 mg/mL, while the control group was replaced with new medium. The experimental and control groups were treated for 2 h, 6 h, 12 h, 24 h, and 48 h separately, […], and cycloheximide was added to the positive control group for 10 min of treatment 25 min before sample collection. 10 μg/μL puromycin-labeled nascent peptide was added to all wells for 15 min, the medium was aspirated, the cells were washed twice with PBS, added with IP & WB lysis buffer to allow lysis on ice for 30 min, and centrifuged at 12,000 g for 20 min at 4° C. A resulting supernatant was transferred to a new centrifuge tube, 10 μg of protein was added to 5×SDS Loading Buffer, denatured in a 100° C. water bath for 10 min, and quantitatively detected by Western blotting. Western Blotting: the sample and molecular standard of pre-stained protein were loaded onto an SDS-PAGE gel (10 cm×10 cm) to allow electrophoresis at 100 V for 40 min. The proteins in SDS-PAGE were transferred to nitrocellulose membrane at 100 V, 230 mA within 1 h. After transfer, the nitrocellulose membrane was washed with 25 mL of TBS for 5 min at room temperature. […]

[2] = system: HER2; assay: Western blotting of HER2 expression after ATCA treatment; format: cell-based; conditions: FIG. 4

O=C(O)C1=CC(=C(c2ccc(O)c(C(=O)O)c2)c2ccc(O)c(C(=O)O)c2)C=CC1=O [ATCA, aurintricarboxylic acid]
protein synthesis (nascent peptides) ([1]; 2 h to 12 h after adding the drug): had not been significantly blocked | number of new peptide chains compared with that without the drug ([1]; 24 h to 48 h after adding the drug): significantly reduced | HER2 expression [2]: downregulation
